pIC50: −log10 of the molar value.
Columns and labels:
[1] = tested on: Plasmodium falciparum; test: Hit confirmation in dose-response curve in NF54 nanoGlo assay, at 72h; format: functional, organism-based, Erythrocyte; set-up: timepoint 72 hour; conditions: Plasmodium falciparum, NF54, Erythrocyte, 72 h
[2] = tested on: Plasmodium falciparum; test: Hit confirmation in dose-response curve in NF54 pLDH assay, at 72h; format: functional, organism-based; set-up: timepoint 72 hour; conditions: NF54, Erythrocyte
[3] = Hit confirmation in dose-response curve in HepG2 cytotoxicity assay, at 72h; format: toxicity, cell-based; set-up: timepoint 72 hour; conditions: human, HepG2 cells
[4] = tested on: Plasmodium falciparum; test: Hit confirmation in dose-response curve in NF54 nanoGlo assay, at 12h; format: functional, organism-based, Erythrocyte; set-up: timepoint 12 hour; conditions: Plasmodium falciparum, NF54, Erythrocyte, 12 h
[5] = tested on: Plasmodium falciparum; test: Hit confirmation in dose-response curve in Dd2 pLDH assay, at 72h; format: functional, organism-based; set-up: timepoint 72 hour; conditions: Dd2, Erythrocyte
[6] = tested on: Plasmodium falciparum; test: Re-testing in dose-response curve in 3D7 pLDH assay, at 72h; format: functional, organism-based; set-up: timepoint 72 hour; conditions: 3D7, Erythrocyte
[7] = Re-testing in dose-response curve in HepG2 cytotoxicity assay, at 72h; format: toxicity, cell-based; set-up: timepoint 72 hour; conditions: human, HepG2 cells

SMILES | pIC50 [1] | pIC50 [2] | IC50 at 72 h [3] | pIC50 [4] | pIC50 [5] | pIC50 [6] | IC50 at 72 h [7]
Cc1nn(-c2nc3ccccc3[nH]2)c(O)c1CCC(C)C | 5.57 | 5.07 | > 10 µM | 5.05 | 5.43 |  | 
Clc1ccc(COc2ccc(Cl)cc2CNCCCn2ccnc2)c(Cl)c1 | 5.85 | 5.90 | > 10 µM | 5.52 | 5.86 | 5.99 | 6.11 µM
NC(=O)c1ccccc1NC(=O)C1CCN(c2cc(C3CC3)ncn2)CC1 | 5.69 | 5.08 | > 10 µM | 5.62 | 5.20 |  | 
COc1ccc(C(=O)N2c3ncnn3C(c3ccccc3)CC2c2ccc(C)cc2)cc1OC (configuration not stated) | 6.34 | 5.93 | > 10 µM | < 5.00 | 6.13 | 6.93 | > 25 µM
O=C(Nc1cnc(-n2ccnc2)nc1)C(c1ccccc1)c1ccccc1 | 5.61 | 5.40 | > 10 µM | 5.10 | 5.28 |  | 
Cc1ccnc(Nc2ccc(N3CCNCC3)nn2)c1 | 5.79 | 5.89 | > 10 µM | 5.55 | 5.77 | 5.52 | > 25 µM
O=C(N[C@@H](Cn1nccn1)c1ccccc1)c1cc(Br)ccc1Cl | 5.76 | 5.56 | > 10 µM | < 5.00 | 5.53 |  | 
O=C(c1cscn1)N1CC[C@H](Oc2cccc(Cl)c2)C1 | 5.40 | 5.16 | > 10 µM | < 5.00 | 5.71 | 6.24 | > 25 µM
CC(C)N1C(=O)NC(=O)C2(Cc3ccccc3N3CCN(Cc4ccccc4)CC32)C1=O (configuration not stated) | 5.40 | < 5.00 | > 10 µM | < 5.00 | < 5.00 |  | 
COc1ccccc1C(=O)NC1=NN2C(=NC(c3ccc(Cl)cc3)=C[C@H]2c2ccc(Cl)cc2)N1 | 6.20 | 5.56 | > 10 µM | 5.97 | 5.96 | 5.31 | > 25 µM
CC(C)c1cc(=O)[nH]c(-n2nc(C3CC3)cc2NC(=O)Cc2ccc(Cl)cc2)n1 | 5.72 | 5.11 | > 10 µM | < 5.00 | 5.41 |  | 
Cc1noc(C)c1CN1C[C@@H]2Oc3cc(F)ccc3C(=O)N(C)[C@@H]2C1 | 6.14 | 5.99 | > 10 µM | 5.80 | 6.00 | 6.31 | > 25 µM
O=C(c1cc2ccccc2[nH]1)N1CCc2sc(Cl)cc2C1 | 5.11 | < 5.00 | > 10 µM | 5.53 | < 5.00 |  | 
CCn1cc(C#N)c(=O)c2cc(F)c(N3CCN(Cc4ccccc4)CC3)cc21 | < 5.00 | < 5.00 | > 10 µM | < 5.00 | < 5.00 |  | 
Nc1c(-c2nc3ccccc3[nH]2)c2nc3ccccc3nc2n1Cc1ccccc1F | 6.60 | 5.96 | > 10 µM | < 5.00 | 6.02 | 5.68 | 24.7 µM
CCC(=O)N(Cc1ccc(-c2ccc(Cl)cc2)o1)[C@H]1CCS(=O)(=O)C1 | 5.78 | 5.29 | > 10 µM | 5.47 | 5.53 |  | 
CCNC(=O)N1CC[C@H](Oc2ccc3ccccc3n2)C1 | 5.57 | 5.13 | > 10 µM | < 5.00 | 5.43 |  | 

SMILES | pIC50 [1] | pIC50 [2] | IC50 at 72 h [3] | pIC50 [4] | pIC50 [5] | pIC50 [6] | IC50 at 72 h [7]
O=C(CCc1ccc(Cl)c(C(F)(F)F)c1)N1CC[C@H](N2CCc3ccccc3C2)C1 | 5.26 | 5.25 | > 10 µM | < 5.00 | 5.08 |  | 
C[C@H]1CCCN(c2nc(-c3ccccn3)nc3ccccc23)C1 | 6.33 | 5.85 | > 10 µM | 5.90 | 5.84 | 5.77 | 1.76 µM
CC(=O)N(C1CCN(Cc2ccccc2)CC1)C1(C(=O)Nc2ccc3[nH]ccc3c2)CCN(C)CC1 | 5.78 | 5.90 | > 10 µM | 5.40 | 5.91 | 5.91 | > 25 µM
Cc1ccc(Nc2ccc(N3CCNCC3)nn2)nc1 | 5.80 | 5.50 | > 10 µM | 5.51 | 5.76 | 5.29 | > 25 µM
CC(C)CC[C@@H](CCNCCN(C)C)c1ccc(Cl)cc1 | 6.25 | 5.99 | > 10 µM | 6.05 | 6.01 | 5.49 | 14.9 µM
CC(C)N(CC(=O)Nc1nccs1)Cc1ccccn1 | 6.16 | 5.77 | > 10 µM | < 5.00 | 6.05 | 5.01 | > 24.8 µM
Clc1ccc(Cn2cc(CNCCCn3ccnc3)c3ccccc32)c(Cl)c1 | 6.13 | 6.25 | > 10 µM | 5.82 | 5.93 | ~6.33 | 3.9 µM
O=C(Nc1ccccc1Cl)N1CCC(N2CCc3sccc3C2)CC1 | 5.43 | 5.45 | > 10 µM | < 5.00 | 5.34 |  | 
COc1ccc([C@@H]2C=C(c3ccc(Cl)cc3)N=C3NC(NC(=O)c4ccccc4OC)=NN32)cc1 | 6.12 | 5.53 | > 10 µM | 5.96 | 5.91 | 5.19 | > 25 µM
CCc1ccc(C(=O)NCCCC2CCCC2O)cc1S(=O)(=O)N1CCOCC1 (configuration not stated) | 5.72 | 5.36 | > 10 µM | < 5.00 | 6.01 | 5.60 | > 25 µM
O=S(=O)(c1ccc(Cl)s1)N1CCC(N2CCc3sccc3C2)CC1 | 5.46 | 5.95 | > 10 µM | < 5.00 | 5.25 |  | 
O=C(Nc1ccccc1)Nc1cnc(-n2ccnc2)nc1 | 5.58 | 5.45 | > 10 µM | 5.33 | 5.26 |  | 
O=S(=O)(c1ccc(F)c(Cl)c1)N1CC[C@H](Oc2ccncc2Cl)C1 | 5.73 | 5.12 | > 10 µM | 5.49 | 5.57 |  | 
O=C(CN1CCC[C@H]1C1CCCC1)NCC1CCCCC1 | 5.42 | 5.52 | > 10 µM | < 5.00 | 5.78 | 5.68 | > 25 µM
CCc1ccc(C(=O)Nc2cnc(-n3ccnc3)nc2)cc1 | 5.30 | 5.45 | > 10 µM | < 5.00 | 5.20 |  | 
Fc1cnc(OC2Cc3ccccc3C2)nc1 | 5.73 | 5.49 | > 10 µM | < 5.00 | < 5.00 |  | 
CCc1cc(=O)[nH]c(-n2nc(C3CC3)cc2NC(=O)C2CCCCC2)n1 | 5.90 | 5.39 | > 10 µM | < 5.00 | 5.49 |  | 

— ChEMBL document CHEMBL4888484, “Replenishing the malaria drug discovery pipeline: Screening and hit evaluation of the MMV Hit Generation Library 1 (HGL1) against asexual blood stage Plasmodium falciparum ,using a nano luciferase reporter read-out” (2022)
